From US20030235646A1, “Method for improving quality of meat by supplementing pig diets and concentrates used therefor” (Lonza Inc., priority 2002, published 2003)

Assays:
[1] = test system: finishing pigs (longissimus muscle); assay: Carcass quality measures of finishing pigs fed Carnitine and Paylean (Example 1); assay type: in vivo; parameters: key to L*: lightness: 100 = perfect white, 0 = absolute black; key to Firmness: score 1 = soft and watery, 5 = firm and dry; Hue angle / Drip loss: unit not given here; details: for Temperature: 45 minutes postmortem
Text: Color is qualitatively measured using Minolta color-spectrometry, a process which evaluates the Hunter L* and a* values of the meat color, as well as by the saturation index and the Hue Angle value. Hunter L* value measures the lightness of the meat color and varies from 100 for perfect white to 0 for absolute black. Acceptable values for pork range from 35 to 55, with 40-45 values being most preferred by consumers.
The other Hunter value is related to the hue of the color of the meat, with increasing a* values indicating redness and decreasing a values indicating greenness. High quality pork has Hunter a* values which range from 7.5 to 12, and consumers prefer meat with 9-9.5 scores.
Hue Angle value measures the discoloration of meat. Increasing values indicate increasing discoloration of meat. Decreasing values indicate reduction of the discoloration. Acceptable pork Hue Angle values range from 48 to 54, and the preferred values range from 48-52.
The final spectrographic measurement is the saturation index, which is related to the strength of the color of the meat. Acceptable pork saturation index values range from 12 to 15.5, with values from 13-14.5 being preferred. The color of the meat is of particular importance in some export markets, such as Japan, Korea, Asia and South America. […] Acceptable marbling score ranges from 1 to 3, with 2.5 being preferred.
Drip loss is a measurement of the ability of the sample to retain water. In this procedure, a standardized amount of lean pork muscle, i.e., a cubic centimeter, is weighed, then suspended in an airtight container from a hook for 24 hours. The difference in weight from beginning to end of the 24 hour period represents the amount of water loss or purge. The greater the amount of purge loss, the poorer the pork quality. Changes in the pH of pork associated with postmortem metabolism affect the isoelectric point of the various amino acids in protein, and thus can affect the protein's ability to bind water. Pork with high drip loss is termed in the industry as “exudative” which is undesirable to both meat producers and consumers.
The firmness of the meat is measured visually on the score from 1 to 5, 1 being soft and watery, 5 being firm and dry. The acceptable score is 2-4, and the preferred score is 2.5-3.5. This characteristic of pork has become important due to recent attempts to genetically improve the leanness of the meat. The desired leanness has been accompanied by a negative impact on the meat firmness. As a result, approximately 30% of the meat now going through packing houses has been categorized as PSE (Pale Soft Exudative meat) and is unacceptable to the consumer, thus causing economic loss to the meat producer according to the National Meat Producers Council. Thus, there is an urgent need in the art for means of improving the quality (firmness, color, marbling) and carcass characteristics of the pork.
(§1) One hundred twenty-six gilts (initially 73.6 lb, PIC C22×L326) were allotted by weight and ancestry in a randomized complete block design to each of the nine experimental treatments arranged in a 3×3 factorial arrangement. There were two pigs/pen and seven replicates/treatment. Pigs were housed in an environmentally controlled building with 4-ft×4-ft slatted-floor pens.
Pigs were fed a corn-soybean meal diet composed of the following:
L-carnitine (0, 25, or 50 ppm) was added to the diet from 73.6 lb until slaughter (approximately 240 lb). Paylean (a registered trademark of Eli Lilly Company for ractopamine) treatments (0, 4.5, or 9 g/ton) were fed for the last four weeks of the experiment. The basal diet was formulated to contain 1.10% lysine from 73.6 to 164 lb, and 1.00% lysine from 164 lb until the end of the experiment. These quantities of Paylean are equivalent to 0, 5, and 10 ppm of ractopamine in the feed, respectively. […]

[2] = test system: finishing pigs; assay: Carcass characteristics of finishing pigs fed Carnitine and Paylean (Example 2); assay type: in vivo; details: for Firmness / Marbling / Visual cobra: score 1 to 5
Method: Because of the dramatic and potentially economically important changes in pork quality observed in the data of Example 1, a second trial was conducted to confirm these observations. This experiment was conducted in the same facility as Example 1 and used the same diet in Table 1. The primary difference was that the 4.5 g/ton ractopamine level was not included; i.e., only 0 or 9 grams/ton ractopamine was combined with either 0, 25, or 50 ppm of added L-camitine.

[3] = test system: pigs; assay: Growth performance of pigs (Example 1); assay type: in vivo; details: between 73.6 and 164 lb; P>0.64
Method: as §1
L-carnitine (0, 25, or 50 ppm) was added to the diet from 73.6 lb until slaughter (approximately 240 lb). Paylean (a registered trademark of Eli Lilly Company for ractopamine) treatments (0, 4.5, or 9 g/ton) were fed for the last four weeks of the experiment. The basal diet was formulated to contain 1.10% lysine from 73.6 to 164 lb, and 1.00% lysine from 164 lb until the end of the experiment. These quantities of Paylean are equivalent to 0, 5, and 10 ppm of ractopamine in the feed, respectively.
Weights were obtained on every pig and feed disappearance was recorded every fourteen days during the experiment until the last four weeks, at which time measurements were taken weekly to calculate ADG, ADFI, and feed efficiency (F/G). One pig (closest to 240 lb) per pen was selected and slaughtered at the Kansas State University Meat Laboratory. […]
Data were analyzed as a randomized complete block. […]

[4] = test system: pork; assay: Follow-up studies of pork drip loss (Example 3, FIGS. 1 and 2); assay type: in vivo, pigs
Method: Drip loss is a measurement of the ability of the sample to retain water. In this procedure, a standardized amount of lean pork muscle, i.e., a cubic centimeter, is weighed, then suspended in an airtight container from a hook for 24 hours. The difference in weight from beginning to end of the 24 hour period represents the amount of water loss or purge. […] Changes in the pH of pork associated with postmortem metabolism affect the isoelectric point of the various amino acids in protein, and thus can affect the protein's ability to bind water.

[5] = Paylean 0 g/ton, Carnitine 25 ppm
[6] = Paylean 0 g/ton, Carnitine 25 ppm, score 1 to 5
[7] = Paylean 0 g/ton, Carnitine 50 ppm
[8] = Paylean 0 g/ton, Carnitine 50 ppm, score 1 to 5
[9] = with 4.5 or 9 g/ton Paylean, but not control pigs
[10] = with increasing levels, linear, P<0.04
[11] = Paylean 4.5 g/ton, Carnitine 0 ppm
[12] = Paylean 4.5 g/ton, Carnitine 0 ppm, score 1 to 5
[13] = Paylean 9 g/ton, Carnitine 0 ppm
[14] = Paylean 9 g/ton, Carnitine 0 ppm, score 1 to 5

For `C[N+](C)(C)C[C@H](O)CC(=O)[O-]` [Carnitine, L-carnitine], the Drip loss [1, 5] was 2.80, the Hue angle [1, 5] was 67.38 and the “L*” value [1, 5] was 58.01. For the same molecule, the “PH 45 m postmortem” value [1, 5] was 6.55, the “PH 24 h postmortem” value [1, 5] was 5.79 and the Saturation index [1, 5] was 15.89. For the same molecule, the “a*” value [1, 5] was 6.17, the “a*/b*” value [1, 5] was 0.42 and the “b*” value [1, 5] was 14.61. It also gave a Temperature [1, 5] of 34.83 °C, a Firmness [1, 6] of 1.65 and a Marbling [1, 6] of 1.71. It also gave a Visual color [1, 6] of 2.78, a Drip loss [1, 7] of 2.07 and a Hue angle [1, 7] of 67.05. The “L*” value [1, 7] was 56.80, the “PH 45 m postmortem” value [1, 7] was 6.46 and the “PH 24 h postmortem” value [1, 7] was 5.76. For the same molecule, the Saturation index [1, 7] was 16.44, the “a*” value [1, 7] was 6.45 and the “a*/b*” value [1, 7] was 0.43. For the same molecule, the “b*” value [1, 7] was 15.10, the Temperature [1, 7] was 32.98 °C and the Firmness [1, 8] was 1.93. The Marbling [1, 8] was 1.85, the Visual color [1, 8] was 3.14 and the visual color scores ([1]; in control pigs) was “did not improve”. The “L* values” ([1]; increasing levels, fed with 4.5 or 9 g/ton of Paylean, longissimus muscle at 10th rib) was “lower L* values”, the “color, marbling, L*, a*/b* ratio and hue angle” value ([1]; supplementing finishing pig diets) was “positively improve” and the Visual color ([1]; when 4.5 or 9 g/ton of Paylean was fed) was “did improve”. The Hue angle values [1, 9] was “lower”, the “a*/b* values” [1, 9] was “lower” and the “Drip loss measured 48 hours postmortem” value [1, 10] was “decreased”. The “temperature at 45 minutes postmortem” value [1, 10] was “decreased”, the “Ultimate (24-h) pH” value ([1]; with increasing levels, linear, P<0.07) was “increased” and the “Measurements of b*” value ([1]; with increasing levels, quadratic, P<0.05) was “decreased”. For the same molecule, the “saturation index measured on the longissimus muscle” value ([1]; with increasing levels, quadratic, P<0.07) was “tended to decrease”, the Drip loss [2, 5] was 3.07% and the Hue angle [2, 5] was 64.61. The “L*” value [2, 5] was 57.23, the Saturation index [2, 5] was 17.59 and the “Temperature 5 min” value [2, 5] was 39.79 °C. For the same molecule, the “Temperature 15 min” value [2, 5] was 39.92 °C, the “Temperature 45 min” value [2, 5] was 39.03 °C and the “Temperature 1.5 h” value [2, 5] was 32.87 °C. For the same molecule, the “Temperature 3 h” value [2, 5] was 22.12 °C, the “Temperature 6 h” value [2, 5] was 11.28 °C and the “a*” value [2, 5] was 7.58. For the same molecule, the “a*/b*” value [2, 5] was 0.48, the “b*” value [2, 5] was 15.86 and the “pH 0 min” value [2, 5] was 7.13. For the same molecule, the “pH 5 min” value [2, 5] was 6.84, the “pH 15 min” value [2, 5] was 6.60 and the “pH 45 min” value [2, 5] was 6.16. For the same molecule, the “pH 1.5 h” value [2, 5] was 5.91, the “pH 3 h” value [2, 5] was 5.76 and the “pH 6 h” value [2, 5] was 5.70. The “pH 24 h” value [2, 5] was 5.61, the Firmness [2, 5] was 2.44 and the Marbling [2, 5] was 1.75. It also gave a Visual cobra [2, 5] of 3.10, a Drip loss [2, 7] of 2.73% and a Hue angle [2, 7] of 64.07. The “L*” value [2, 7] was 58.00, the Saturation index [2, 7] was 18.11 and the “Temperature 5 min” value [2, 7] was 39.17 °C. For the same molecule, the “Temperature 15 min” value [2, 7] was 39.56 °C, the “Temperature 45 min” value [2, 7] was 38.73 °C and the “Temperature 1.5 h” value [2, 7] was 33.17 °C. For the same molecule, the “Temperature 3 h” value [2, 7] was 20.89 °C, the “Temperature 6 h” value [2, 7] was 11.22 °C and the “a*” value [2, 7] was 7.93. The “a*/b*” value [2, 7] was 0.49, the “b*” value [2, 7] was 16.27 and the “pH 0 min” value [2, 7] was 7.21. For the same molecule, the “pH 5 min” value [2, 7] was 6.82, the “pH 15 min” value [2, 7] was 6.58 and the “pH 45 min” value [2, 7] was 6.02. The “pH 1.5 h” value [2, 7] was 5.97, the “pH 3 h” value [2, 7] was 5.88 and the “pH 6 h” value [2, 7] was 5.70. The “pH 24 h” value [2, 7] was 5.60, the Firmness [2, 7] was 2.34 and the Marbling [2, 7] was 1.55. The Visual cobra [2, 7] was 2.90, the meat quality ([2]; in pigs fed Paylean) was “improves meat quality” and the “growth performance of pigs” value [3] was “did not affect”. The “effect on drip loss” value ([4]; 50 ppm, without ractopamine, two of the three studies, FIG. 1) was “small positive effect” and the “effect on reducing (improving) pork drip loss” value ([4]; added to diet containing ractopamine, FIG. 2) was “greater net positive effect”.
`CC(CCc1ccc(O)cc1)NCC(O)c1ccc(O)cc1` (centres unmarked) [Paylean, ractopamine, reference compound] was tested, and the Drip loss [1, 11] was 3.13, the Hue angle [1, 11] was 69.95 and the “L*” value [1, 11] was 60.78. For the same molecule, the “PH 45 m postmortem” value [1, 11] was 6.41, the “PH 24 h postmortem” value [1, 11] was 5.79 and the Saturation index [1, 11] was 16.76. The “a*” value [1, 11] was 5.78, the “a*/b*” value [1, 11] was 0.37 and the “b*” value [1, 11] was 15.69. The Temperature [1, 11] was 34.39 °C, the Firmness [1, 12] was 1.79 and the Marbling [1, 12] was 1.35. For the same molecule, the Visual color [1, 12] was 2.57, the Drip loss [1, 13] was 3.68 and the Hue angle [1, 13] was 68.65. For the same molecule, the “L*” value [1, 13] was 61.53, the “PH 45 m postmortem” value [1, 13] was 6.33 and the “PH 24 h postmortem” value [1, 13] was 5.71. The Saturation index [1, 13] was 17.12, the “a*” value [1, 13] was 6.30 and the “a*/b*” value [1, 13] was 0.39. The “b*” value [1, 13] was 15.90, the Temperature [1, 13] was 35.72 °C and the Firmness [1, 14] was 1.79. For the same molecule, the Marbling [1, 14] was 1.64, the Visual color [1, 14] was 2.57 and the “Twenty-four hour pH” value ([1]; with increasing levels of Paylean, quadratic, P<0.06, highest at 4.5 g/ton) was “increased and then decreased”. The Drip loss [2, 13] was 4.85%, the Hue angle [2, 13] was 65.14 and the “L*” value [2, 13] was 59.72. For the same molecule, the Saturation index [2, 13] was 18.74, the “Temperature 5 min” value [2, 13] was 39.60 °C and the “Temperature 15 min” value [2, 13] was 40.42 °C. For the same molecule, the “Temperature 45 min” value [2, 13] was 39.43 °C, the “Temperature 1.5 h” value [2, 13] was 35.99 °C and the “Temperature 3 h” value [2, 13] was 24.38 °C. For the same molecule, the “Temperature 6 h” value [2, 13] was 12.04 °C, the “a*” value [2, 13] was 7.94 and the “a*/b*” value [2, 13] was 0.46. For the same molecule, the “b*” value [2, 13] was 16.97, the “pH 0 min” value [2, 13] was 7.16 and the “pH 5 min” value [2, 13] was 6.79. The “pH 15 min” value [2, 13] was 6.59, the “pH 45 min” value [2, 13] was 6.14 and the “pH 1.5 h” value [2, 13] was 5.89. For the same molecule, the “pH 3 h” value [2, 13] was 5.59, the “pH 6 h” value [2, 13] was 5.61 and the “pH 24 h” value [2, 13] was 5.58. The Firmness [2, 13] was 1.99, the Marbling [2, 13] was 1.85 and the Visual cobra [2, 13] was 2.75.
